The series has as its system human maximum recommended daily dose, FDA database. The series can be described thus: DSSTox (FDAMDD) FDA Maximum (Recommended) Daily Dose Database. The settings on record: hits give low values. The gist of the method: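 MRDD values come from clinical trials with daily oral dosing, usually for 3–12 months, for the average adult, in mg/day converted to mg/kg-bw/day assuming 60 kg. Antineoplastic mg/m2 doses are divided by 37. Activity score maps log10(1/MRDD mmol) onto 1–100.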

Where [1] appears, read: TherapeuticCategory: antibacterial.
[2] abbreviates: TherapeuticCategory: sedative, hypnotic.
The mark [3] stands for this setting: TherapeuticCategory: uricosuric.
Where [4] appears, read: TherapeuticCategory: diagnostic aid.
The mark [5] stands for this setting: TherapeuticCategory: choleretic.
The mark [6] stands for this setting: TherapeuticCategory: glucocorticoid.
Where [7] appears, read: TherapeuticCategory: antihypertensive.
[8] abbreviates: TherapeuticCategory: antihypertensive, antianginal, antiarrhythmic, antiglaucomic.

Turning to `Cn1nnnc1SCC1=C(C(=O)O)N2C(=O)[C@@H](NC(=O)[C@H](O)c3ccccc3)[C@H]2SC1`, the maximum recommended daily dose (mmol/kg-bw/day) under setting [1] is 0.216.

Consider `OC[C@H]1OC(O)[C@H](O)[C@@H](O)[C@@H]1O` (some centres not stated), for which, under “TherapeuticCategory: fluid and nutrient replenisher”, the maximum recommended daily dose (mmol/kg-bw/day) is 0.555.

`CCC1(c2ccccc2)CCC(=O)NC1=O` (configuration not stated): the maximum recommended daily dose (mmol/kg-bw/day) under setting [2] is 0.0383.

For `CCN(CC)S(=O)(=O)c1ccc(C(=O)O)cc1`, the maximum recommended daily dose (mmol/kg-bw/day) under setting [3] is 0.194.

For the compound `CN[C@@H]1[C@@H](O)[C@@H](O[C@@H]2[C@@H](O)[C@H](O[C@H]3O[C@H](C(C)N)CC[C@H]3N)[C@@H](N)C[C@H]2N)OC[C@]1(C)O` (some centres not stated), under setting [1], the maximum recommended daily dose (mmol/kg-bw/day) was 0.00647.

On to `CC(=O)Nc1c(I)c(NC(C)=O)c(I)c(C(=O)O)c1I`, for which, under setting [4], the maximum recommended daily dose (mmol/kg-bw/day) was 0.761.

For the compound `CC(C)(CO)C(O)C(=O)NCCCO` (configuration not stated), the maximum recommended daily dose (mmol/kg-bw/day) (TherapeuticCategory: cholinergic) was 0.0406.

Turning to `O=C(O)C1CSCN1` (configuration not stated), the maximum recommended daily dose (mmol/kg-bw/day) under setting [5] is 0.0751.

As to `C=C1CC[C@H](O)C/C1=C/C=C1\CCC[C@]2(C)[C@@H]([C@H](C)CCCC(C)(C)O)CC[C@@H]12`, for the setting “TherapeuticCategory: calcium regulator”, the maximum recommended daily dose (mmol/kg-bw/day) is 8.31e-06.

`COc1cc(N)c(Cl)cc1C(=O)NC1CCN(CCCOc2ccc(F)cc2)CC1OC` (configuration not stated): the maximum recommended daily dose (mmol/kg-bw/day) (TherapeuticCategory: peristaltic stimulant) was 0.00285.

Take `C[C@H]1C[C@H]2[C@@H]3CCC4=CC(=O)C=C[C@]4(C)[C@H]3C(=O)C[C@]2(C)[C@@]1(O)C(=O)CO`: the maximum recommended daily dose (mmol/kg-bw/day) under setting [6] was 0.00215.

In the case of `C[C@H](CCC(=O)O)[C@H]1CC[C@H]2[C@@H]3C(=O)C[C@@H]4CC(=O)CC[C@]4(C)[C@H]3CC(=O)[C@]12C`, under setting [5], the maximum recommended daily dose (mmol/kg-bw/day) is 0.0932.

For `CC(=O)OCC(CCn1cnc2cnc(N)nc21)COC(C)=O`, the maximum recommended daily dose (mmol/kg-bw/day) (TherapeuticCategory: antiviral) is 0.0778.

In the case of `N[C@@H]1[C@@H](O)[C@@H](O[C@@H]2[C@@H](O)[C@H](O[C@H]3O[C@H](CO)[C@@H](O)[C@H](O)[C@H]3N)[C@@H](N)C[C@H]2N)O[C@H](CO)[C@H]1O`, under setting [1], the maximum recommended daily dose (mmol/kg-bw/day) is 0.031.

Take `CCCCC1C(=O)N(c2ccccc2)N(c2ccccc2)C1=O`: the maximum recommended daily dose (mmol/kg-bw/day) (TherapeuticCategory: anti inflammatory) is 0.0324.

Take `CC1OC(C)OC(C)O1` (configuration not stated): under setting [2], the maximum recommended daily dose (mmol/kg-bw/day) was 1.89.

With `NCC(CC(=O)O)c1ccc(Cl)cc1` (configuration not stated), for the setting “TherapeuticCategory: skeletal muscle relaxant”, the maximum recommended daily dose (mmol/kg-bw/day) is 0.00622.

Turning to `CCOC(=O)[C@H](CCc1ccccc1)N[C@@H](C)C(=O)N1[C@H](C(=O)O)C[C@@H]2CCC[C@@H]21`, the maximum recommended daily dose (mmol/kg-bw/day) under setting [7] was 0.000799.

On to `CC1=C(C(=O)O)N2C(=O)[C@@H](NC(=O)[C@H](N)c3ccc(O)cc3)[C@H]2SC1`, for which, under setting [1], the maximum recommended daily dose (mmol/kg-bw/day) is 0.046.

For `C[C@@H]1C/C=C/C=C/C=C/C=C/[C@H](O[C@@H]2O[C@H](C)[C@@H](O)[C@H](N)[C@@H]2O)C[C@@H]2O[C@](O)(C[C@@H](O)C[C@H]3O[C@@H]3/C=C/C(=O)O1)C[C@H](O)[C@H]2C(=O)O`, the maximum recommended daily dose (mmol/kg-bw/day) under setting [1] is 0.000413.

Consider `CC(C)(C)NC[C@H](O)COc1nsnc1N1CCOCC1`, for which the maximum recommended daily dose (mmol/kg-bw/day) under setting [8] is 0.00316.

As to `CC(=O)OCC(=O)[C@@]1(O)CC[C@H]2[C@@H]3CCC4=CC(=O)C=C[C@]4(C)[C@H]3[C@@H](O)C[C@@]21C`, under setting [6], the maximum recommended daily dose (mmol/kg-bw/day) is 0.00827.

Regarding `O=C(CCCN1CCC(O)(c2cccc(C(F)(F)F)c2)CC1)c1ccc(F)cc1`, the maximum recommended daily dose (mmol/kg-bw/day) (TherapeuticCategory: antipsychotic) was 0.000325.

With `NS(=O)(=O)c1cc(Cl)c(Cl)c(S(N)(=O)=O)c1`, under “TherapeuticCategory: carbonic anhydrase inhibitor”, the maximum recommended daily dose (mmol/kg-bw/day) was 0.0109.

In the case of `CCC(c1ccc2cc(OC)ccc2c1)C(C)(C)C(=O)O` (configuration not stated), under “TherapeuticCategory: estrogen”, the maximum recommended daily dose (mmol/kg-bw/day) was 0.000524.

With `CCC(C)CON=O` (configuration not stated), the maximum recommended daily dose (mmol/kg-bw/day) (TherapeuticCategory: none) is 0.0427.

Regarding `CCCCCCC(=O)OCCN1CCN(CCCN2c3ccccc3Sc3ccc(C(F)(F)F)cc32)CC1`, under “TherapeuticCategory: antispsychotic”, the maximum recommended daily dose (mmol/kg-bw/day) is 0.000606.

On to `CCCCNC(=O)NS(=O)(=O)c1ccc(C)cc1`, for which, for the setting “TherapeuticCategory: hypoglycemic agent”, the maximum recommended daily dose (mmol/kg-bw/day) was 0.123.

For `CC(=O)OCC(=O)[C@@]1(O)[C@H](C)C[C@H]2[C@@H]3CCC4=CC(=O)C=C[C@]4(C)[C@@]3(F)C(O)C[C@@]21C` (some centres not stated), under “TherapeuticCategory: glucocorticoid, anti inflammatory”, the maximum recommended daily dose (mmol/kg-bw/day) is 0.000345.

As to `OC(CCN1CCCCC1)(c1ccccc1)C1CCCCC1` (configuration not stated), the maximum recommended daily dose (mmol/kg-bw/day) (TherapeuticCategory: anticholinergic, antiparkinsonian) is 0.000829.

As for `CCOC(=O)C1(c2ccccc2)CCCN(C)CC1` (configuration not stated), where the note is “TherapeuticCategory: analgesic”, the maximum recommended daily dose (mmol/kg-bw/day) is 0.0383.

Regarding `CC(C)NCC(O)COc1cccc2[nH]ccc12` (configuration not stated), under setting [8], the maximum recommended daily dose (mmol/kg-bw/day) was 0.00403.

As to `O=C(O)c1c(Cl)c(Cl)c(Cl)c(Cl)c1-c1c2cc(I)c(=O)c(I)c-2oc2c(I)c(O)c(I)cc12`, the maximum recommended daily dose (mmol/kg-bw/day) under setting [4] is 0.00197.

For `CCc1oc2ccccc2c1C(=O)c1cc(Br)c(O)c(Br)c1`, under setting [3], the maximum recommended daily dose (mmol/kg-bw/day) is 0.0118.

For `CC[C@@]1(O)C[C@H](O[C@H]2C[C@H](N(C)C)[C@H](O[C@H]3C[C@H](O)[C@H](O[C@H]4CCC(=O)[C@H](C)O4)[C@H](C)O3)[C@H](C)O2)c2c(cc3c(c2O)C(=O)c2c(O)cccc2C3=O)[C@H]1C(=O)OC`, the maximum recommended daily dose (mmol/kg-bw/day) (TherapeuticCategory: antineoplastic) is 0.00333.

For `CC1(C)S[C@@H]2[C@H](NC(=O)C3(N)CCCCC3)C(=O)N2[C@H]1C(=O)O`, the maximum recommended daily dose (mmol/kg-bw/day) under setting [1] is 0.0975.

Take `CN1[C@@H]2CC[C@H]1CC(OC(=O)C(CO)c1ccccc1)C2` (some centres not stated): the maximum recommended daily dose (mmol/kg-bw/day) (TherapeuticCategory: anticholinergic, mydriatic, antispasmodic) is 4.6e-06.

For `c1ccc(CN(CC2=NCCN2)c2ccccc2)cc1`, under “TherapeuticCategory: antihistaminic”, the maximum recommended daily dose (mmol/kg-bw/day) is 0.0188.

Take `Nc1ccn([C@H]2CS[C@@H](CO)O2)c(=O)n1`: the maximum recommended daily dose (mmol/kg-bw/day) (TherapeuticCategory: antiviral) was 0.0218.

`CC(C)n1c(/C=C/[C@@H](O)C[C@@H](O)CC(=O)O)c(-c2ccc(F)cc2)c2ccccc21`: the maximum recommended daily dose (mmol/kg-bw/day) (TherapeuticCategory: antihyperlipoproteinemic) was 0.00162.

Turning to `NC(=O)c1cccnc1`, for the setting “TherapeuticCategory: vitamin”, the maximum recommended daily dose (mmol/kg-bw/day) was 0.0682.

Turning to `CN1C(=O)CCS(=O)(=O)C1c1ccc(Cl)cc1` (configuration not stated), for the setting “TherapeuticCategory: anxiolytic, skeletal muscle relaxant”, the maximum recommended daily dose (mmol/kg-bw/day) was 0.0244.

As for `COC(=O)[C@H]1[C@H]2C[C@@H]3c4[nH]c5ccccc5c4CCN3C[C@H]2C[C@@H](OC(=O)c2cc(OC)c(OC)c(OC)c2)[C@@H]1OC`, under setting [7], the maximum recommended daily dose (mmol/kg-bw/day) was 2.89e-05.

As for `NC(CSCC(=O)O)C(=O)O` (configuration not stated), the maximum recommended daily dose (mmol/kg-bw/day) (TherapeuticCategory: mucolytic, expectorant) was 0.209.

Turning to `CNC(C)[C@@H]1CC[C@@H](N)[C@@H](O[C@H]2[C@H](O)[C@@H](O[C@H]3OC[C@](C)(O)[C@H](NC)[C@H]3O)[C@H](N)C[C@@H]2N)O1` (some centres not stated), under setting [1], the maximum recommended daily dose (mmol/kg-bw/day) is 0.00628.

As to `Cc1oncc1C(=O)Nc1ccc(C(F)(F)F)cc1`, under “TherapeuticCategory: antirheuematic, immunosuppressant”, the maximum recommended daily dose (mmol/kg-bw/day) is 0.00123.

Consider `CCC(=O)OCC(=O)[C@@]1(OC(=O)CC)[C@@H](C)C[C@H]2[C@@H]3CCC4=CC(=O)C=C[C@]4(C)[C@@]3(F)[C@@H](O)C[C@@]21C`, for which, under setting [6], the maximum recommended daily dose (mmol/kg-bw/day) is 0.000297.

As to `C[C@]1(O)CC[C@H]2[C@@H]3CCC4=CC(=O)CC[C@@H]4[C@H]3CC[C@@]21C`, the maximum recommended daily dose (mmol/kg-bw/day) (TherapeuticCategory: androgen) was 0.00173.

On to `COCC1=C(C(=O)OC(C)OC(=O)OC(C)C)N2C(=O)[C@@H](NC(=O)/C(=N\OC)c3csc(N)n3)[C@H]2SC1` (some centres not stated), for which the maximum recommended daily dose (mmol/kg-bw/day) under setting [1] was 0.0179.

Take `O=C1Nc2ccc(Cl)cc2C(c2ccccc2Cl)=NC1O` (configuration not stated): the maximum recommended daily dose (mmol/kg-bw/day) (TherapeuticCategory: anxiolytic) is 0.00052.

As for `Cc1ncsc1CCCl`, the maximum recommended daily dose (mmol/kg-bw/day) (TherapeuticCategory: sedative, hypnotic, anticonvulsant) is 0.0396.

For `O=C(O)CC(O)(CC(=O)O)C(=O)O`, the maximum recommended daily dose (mmol/kg-bw/day) (TherapeuticCategory: bactericide) is 0.52.

`N[C@@H](Cc1cnc[nH]1)C(=O)O`: the maximum recommended daily dose (mmol/kg-bw/day) (TherapeuticCategory: none) is 0.645.

Take `O=C(O)CN(CCN(CC(=O)O)CC(=O)O)CCN(CC(=O)O)CC(=O)O`: under “TherapeuticCategory: chelating agent”, the maximum recommended daily dose (mmol/kg-bw/day) was 0.0425.

Consider `CCCCCCCC/C=C\CCCCCCCC(=O)O`, for which the maximum recommended daily dose (mmol/kg-bw/day) (TherapeuticCategory: sclerosing agent) was 0.242.

Take `CN[C@@H]1[C@@H](O)[C@@H](O[C@@H]2[C@@H](O)[C@H](O[C@H]3O[C@H](CN)CC[C@H]3N)[C@@H](N)C[C@H]2N)OC[C@]1(C)O`: under setting [1], the maximum recommended daily dose (mmol/kg-bw/day) is 0.00667.

Consider `CCCCC(CC)COC(=O)CC(C(=O)OCC(CC)CCCC)S(=O)(=O)O` (configuration not stated), for which, where the note is “TherapeuticCategory: stool softener”, the maximum recommended daily dose (mmol/kg-bw/day) is 0.0109.

As to `CC1NCCOC1c1ccccc1` (configuration not stated), the maximum recommended daily dose (mmol/kg-bw/day) (TherapeuticCategory: anorexic, CNS stimulant) was 0.00705.

As for `CCCCC[C@](C)(O)/C=C/[C@@H]1[C@@H](C/C=C\CCCC(=O)O)[C@@H](O)C[C@H]1O`, the maximum recommended daily dose (mmol/kg-bw/day) (TherapeuticCategory: oxytocic) is 0.000543.

Turning to `CC(CN(C)C)CN1c2ccccc2CCc2ccccc21` (configuration not stated), under “TherapeuticCategory: antidepressant”, the maximum recommended daily dose (mmol/kg-bw/day) was 0.0113.

As to `C[C@H]1O[C@@H](O[C@H]2CC[C@@]3(C)[C@H](CC[C@@H]4[C@@H]3C[C@@H](O)[C@]3(C)[C@@H](C5=CC(=O)OC5)CC[C@]43O)C2)C[C@H](O)[C@@H]1O[C@H]1C[C@H](O)[C@H](O[C@H]2C[C@H](O)[C@H](O[C@@H]3O[C@H](CO)[C@@H](O)[C@H](O)[C@H]3O)[C@@H](C)O2)[C@@H](C)O1`, the maximum recommended daily dose (mmol/kg-bw/day) (TherapeuticCategory: cardiotonic) is 8.48e-08.

As for `CCC(C)n1ncn(-c2ccc(N3CCN(c4ccc(OC[C@H]5CO[C@](Cn6cncn6)(c6ccc(Cl)cc6Cl)O5)cc4)CC3)cc2)c1=O` (some centres not stated), where the note is “TherapeuticCategory: antifungal”, the maximum recommended daily dose (mmol/kg-bw/day) was 0.0142.
